Read-outs that look alike come from different tables or passages of the source.
Tests used:
Assay type in all cases: cell-based
LNCap (PSMA+) cells [1] = experiment: In vitro cell killing, Method 3: Live-Cell Analysis assay (Incucyte), PSMA-expressing target cells (LNCap); conditions: Homo sapiens, 24 hour timepoint, 5:1 effector cells to target cells, EC50 in molar (M), read-out: Incucyte ® pEC50, LNCap (converted)
Method: (§1) In vitro cell killing of antigen expressing target cells in the presence of anti-cotinine CAR-T or CAR-NK cells and antigen matched CyTaCs was evaluated by three different methods: Cell Titler Glo assay (method 1); Real-Time Cell Analysis (RTCA) Impedance Assay (method 2); and live cell analysis assay (method 3), as described below.
Method 3: Live-Cell Analysis Assay (Incucyte®)
A Live-Cell Analysis assay (Incucyte®) was performed to assess in vitro cell killing of fluorescently-labelled antigen-expressing adherent target cells co-incubated with anti-cotinine immune effector cells (i.e. CAR-T cells, CAR-NK92 cells) and antigen matched CyTaCs. To perform the live-cell analysis assay, fluorescently-labelled antigen-expressing target cells were seeded at a density of 1.0×10^4 to 3×10^4 cells per 100 μL of media, and grown overnight in a 37° C. incubator. The next day, 50 μL of antigen-matched CyTaC solution was added at a concentration to result in 10 μM to 0.01 nM final assay concentration, followed by the addition of 50 μL anti-cotinine immune effector cells (i.e. CAR-T cells, CAR-NK92 cells) at a ratio of 5:1 effector cells to antigen-presenting target cells. The samples were placed in Live-Cell Analysis (Incucyte®) instrument, and the fluorescence of the wells was recorded every 2 hours for an additional 24 to 48 hours.
(§2) CyTaC compounds of Formula (I) were evaluated for anti-cotinine immune cell (i.e. CAR-T, CAR-NK92) mediated cell cytotoxicity as measured by fluorescence of viable cells in the above assay in one or more experimental runs and the results are shown in Table 7 and FIG. 4. Potency of the compounds of Formula (I) is reported as a pEC50 value at the 24 hour timepoint. The pEC50 value is the negative log of the EC50 value, wherein the EC50 value is half maximal effective concentration measured in molar (M). For compounds tested in more than one experimental run, the pEC50 value is reported as an average.

[2] = test system: PSMA-expressing target cells; experiment: In vitro cell killing, Method 1: CellTiter-Glo luminescent cell viability assay, PSMA-expressing target cells; conditions: 24 hours, EC50 in molar (M)
Method: as §1
(§3) A luminescent assay was performed to quantify the number of viable cells remaining following co-incubation of antigen-expressing adherent target cells, anti-cotinine CAR-T cells, and antigen matched CyTaCs using a CellTiter-Glo Luminescent Cell Viability Assay (Promega). […] After co-incubation, the supernatants were removed from the wells, the residual adherent target cells in the wells were then analyzed for cell viability using CellTiter-Glo® Luminescent Cell Viability Assay (Promega) according to manufacturer's instructions, as described below in Example 5.
(§4) CyTaC compounds of Formula (I) were evaluated for anti-cotinine immune cell mediated cell cytotoxicity in the above assay in one or more experimental runs and the results are shown in Table 6 below and FIGS. 2A, 2B, and 2C. […] The pEC50 value is the negative log of the EC50 value, wherein the EC50 value is half maximal effective concentration measured in molar (M). […]

LNCap (PSMA+) cells [3] = experiment: Pro-inflammatory cytokine (IFN-gamma) production assay, PSMA-expressing target cells (LNCap), MSD ELISA; conditions: Homo sapiens, EC50 in molar (M)
Method: (§5) Example 4: Immune Effector Cell (i.e., Anti-Cotinine CAR-T Cell, Anti-Cotinine CAR-NK92 Cell) Functional Study: Pro-Inflammatory Cytokine (e.g., IFN-Gamma) Production Assay
(§6) An ELISA assay was performed to quantify the level of IFN-gamma production by anti-cotinine CAR-T cells in the presence of CyTaC using a Meso Scale Discovery (MSD) T-Plex Multispot Cytokine Assay System. To perform the ELISA assay, each sample was obtained from the co-incubation of anti-cotinine immune effector cells (i.e. CAR-T, CAR-NK92), antigen-expressing target cells, and respective antigen-targeting CyTaCs. CAR-T and CAR-NK cells were prepared as described above in Examples 2 and 3, respectively.
Antigen-expressing target cells were pre-seeded at a density 1.5×10^4 cells per 100 μL of media in each well of a 96-well plate and grown overnight. For functional confirmation of immune effector cell (i.e. anti-cotinine CAR-T cells, anti-cotinine CAR-NK92 cells) activation, 100 nM or 10 nM of CyTaC was introduced into each well where the target cells were seeded to activate the anti-cotinine immune effector cell. For dose response determinations, 10 μM to 0.01 nM of CyTaC was added to the wells. The anti-cotinine immune effector cells (i.e. CAR-T, CAR-NK92) were next added to the wells at a fixed ratio (between 1:1 and 10:1) of effector cells to antigen-expressing After co-incubation, the supernatants were removed from the wells and analyzed to determine IFNγ release using a pro-inflammatory cytokine production assay (Meso Scale Diagnostics V-PLEX Human IFNγ Kit) according to manufacturer's protocol.
For dose response determinations, EC50 calculations were done using Graphpad Prism Software, specifically a nonlinear regression curve fit (Y=Bottom+(Top−Bottom)/(1+10^((Log EC50−X)*HillSlope))).
as §2, with “tested” for “evaluated”, “activation” for “mediated cell cytotoxicity”, “IFN-Gamma production” for “fluorescence of viable cells”, “5.” for “7 and FIG. 4.”, “value.” for “value at the 24 hour timepoint.”

[4] = test system: αVβ6-expressing target cells; experiment: Pro-inflammatory cytokine (IFN-gamma) production assay, αVβ6-expressing target cells; conditions: EC50 in molar (M)
Method: as §5, §6
(§7) Antigen-expressing target cells were pre-seeded at a density 1.5×10^4 cells per 100 μL of media in each well of a 96-well plate and grown overnight. […] The anti-cotinine immune effector cells (i.e. CAR-T, CAR-NK92) were next added to the wells at a fixed ratio (between 1:1 and 10:1) of effector cells to antigen-expressing After co-incubation, the supernatants were removed from the wells and analyzed to determine IFNγ release using a pro-inflammatory cytokine production assay (Meso Scale Diagnostics V-PLEX Human IFNγ Kit) according to manufacturer's protocol. […]

[5] = test system: αVβ6-expressing target cells; experiment: In vitro cell killing, Method 1: CellTiter-Glo luminescent cell viability assay, αVβ6-expressing target cells; conditions: anti-cotinine CAR-T, 24 hours, EC50 in molar (M), read-out: Cell Titler Glo pEC50 (CAR-T) (converted)
Method: as §1, §3, §4

[6] = test system: FOLR-expressing target cells; experiment: Pro-inflammatory cytokine (IFN-gamma) production assay, FOLR-expressing target cells; conditions: EC50 in molar (M)
Method: as §5, §6, §7

[7] = test system: FOLR-expressing target cells; experiment: In vitro cell killing, Method 1: CellTiter-Glo luminescent cell viability assay, FOLR-expressing target cells; conditions: 24 hours, EC50 in molar (M)
Method: as §1, §3, §4

[8] = test system: FAP-expressing target cells; experiment: In vitro cell killing, Method 1: CellTiter-Glo luminescent cell viability assay, FAP-expressing target cells; conditions: 24 hours, EC50 in molar (M)
Method: as §1, §3, §4

[9] = test system: FAP-expressing target cells; experiment: Pro-inflammatory cytokine (IFN-gamma) production assay, FAP-expressing target cells; conditions: EC50 in molar (M)
Method: as §5, §6, §7

[10] = anti-cotinine CAR-NK, read-out: Cell Titler Glo pEC50 (CAR-NK) (converted)
[11] = anti-cotinine CAR-T, read-out: Cell Titler Glo pEC50 (CAR-T) (converted)
[12] = CAR-T cell activation, PSMA-targeting CyTaCs, read-out: IFNγ Production pEC50, LNCap (converted)
[13] = anti-cotinine CAR-NK, read-out: IFNγ Production pEC50 (CAR-NK) (converted)
[14] = anti-cotinine CAR-T, read-out: IFNγ Production pEC50 (CAR-T) (converted)

Q: Which results are given for CN1C(=O)C[C@H](C(=O)NCCO[C@H]2CC[C@H](OCCCC(=O)N[C@H]3CC[C@H](C(=O)N[C@@H](Cc4ccc5ccccc5c4)C(=O)NCCCC[C@H](NC(=O)N[C@@H](CCC(=O)O)C(=O)O)C(=O)O)CC3)CC2)[C@H]1c1cccnc1 [compound 1]?
A: EC50 (LNCap (PSMA+) cells [1]): 2.51e-10 M; EC50 [2, 10]: 3.98e-11 M; EC50 [2, 11]: 1.58e-10 M; EC50 (LNCap (PSMA+) cells [3]; [12]): 1.58e-10 M; EC50 (LNCap (PSMA+) cells [3]; anti-cotinine CAR-NK, PSMA-expressing target cells, read-out: IFNγ Production pEC50 (CAR-NK) (converted)): 1.58e-11 M; EC50 (LNCap (PSMA+) cells [3]; anti-cotinine CAR-T, PSMA-expressing target cells, read-out: IFNγ Production pEC50 (CAR-T) (converted)): 1.58e-10 M

Q: For CN1C(=O)C[C@H](C(=O)NCCO[C@H]2CC[C@H](OCCCC(=O)N[C@H]3CC[C@H](C(=O)NCCNC(=O)[C@H](Cc4ccccc4)NC(=O)[C@H](Cc4ccccc4)NC(=O)CCCCCCCNC(=O)CC[C@H](NC(=O)N[C@@H](CCC(=O)O)C(=O)O)C(=O)O)CC3)CC2)[C@H]1c1cccnc1 [compound 2], which EC50 (LNCap (PSMA+) cells [1]) is on record?
A: Its EC50 is 3.98e-09 M.

Q: What about the EC50 (LNCap (PSMA+) cells [3]; [12]) of the same molecule?
A: The EC50 was 5.01e-08 M.

Q: For CN1C(=O)C[C@H](C(=O)NCCNC(=O)[C@H](Cc2ccccc2)NC(=O)[C@H](Cc2ccccc2)NC(=O)CCCCCCCNC(=O)CC[C@H](NC(=O)N[C@@H](CCC(=O)O)C(=O)O)C(=O)O)[C@H]1c1cccnc1 [compound 3], which EC50 (LNCap (PSMA+) cells [1]) is on record?
A: The EC50 was 1.26e-08 M.

Q: What about the EC50 (LNCap (PSMA+) cells [3]; [12]) of the same molecule?
A: The EC50 was 1e-07 M.

Q: How did the EC50 (LNCap (PSMA+) cells [1]) turn out when CN1C(=O)C[C@H](C(=O)NCCO[C@H]2CC[C@H](OCCCC(=O)N[C@H]3CC[C@H](C(=O)NCCNC(=O)CC[C@H](NC(=O)N[C@@H](CCC(=O)O)C(=O)O)C(=O)O)CC3)CC2)[C@H]1c1cccnc1 [compound 4] was run?
A: The EC50 was 1e-08 M.

Q: What about the EC50 (LNCap (PSMA+) cells [3]; [12]) of the same molecule?
A: Its EC50 is 5.01e-08 M.

Q: For CN1C(=O)C[C@H](C(=O)NCCO[C@H]2CC[C@H](OCCCC(=O)N[C@H]3CC[C@H](C(=O)N4CCN(c5cccc([C@H](CC(=O)O)CN6CC[C@@H](CCc7ccc8c(n7)NCCC8)C6)c5)CC4)CC3)CC2)[C@H]1c1cccnc1 [compound 5], which EC50 [4, 13] is on record?
A: The EC50 was 5.01e-10 M.

Q: And the EC50 [4, 14]?
A: The EC50 was 6.31e-10 M.

Q: What about the EC50 [5] of the same molecule?
A: Its EC50 is 2.51e-10 M.

Q: With CN1C(=O)C[C@H](C(=O)NCCO[C@H]2CC[C@H](OCCCC(=O)N[C@H]3CC[C@H](C(=O)NCCNC(=O)CC[C@H](NC(=O)c4ccc(NCc5cnc6nc(N)[nH]c(=O)c6n5)cc4)C(=O)O)CC3)CC2)[C@H]1c1cccnc1 [compound 6] as the molecule, how does the EC50 [6, 13] read?
A: Its EC50 is 2.51e-12 M.

Q: And the EC50 [6, 14]?
A: The EC50 was 1.58e-08 M.

Q: What about the EC50 [7, 10] of the same molecule?
A: Its EC50 is 1e-09 M.

Q: And the “Cell Titler Glo pEC50 (CAR-T)” value ([7]; anti-cotinine CAR-T)?
A: The value was “Inactive”.

Q: Which results are given for CN(CCNC(=O)[C@H]1CC[C@H](NC(=O)CCCO[C@H]2CC[C@H](OCCNC(=O)[C@H]3CC[C@H](NC(=O)CCCO[C@H]4CC[C@H](OCCNC(=O)[C@H]5CC(=O)N(C)[C@@H]5c5cccnc5)CC4)CC3)CC2)CC1)c1ccc2nccc(C(=O)NCC(=O)N3CC(F)(F)C[C@H]3C#N)c2c1 [compound 7]?
A: EC50 [8, 10]: 5.01e-10 M; EC50 [8, 11]: 2e-10 M; EC50 [9, 13]: 5.01e-11 M; EC50 [9, 14]: 1e-09 M
